Experimental data as given in patent US20240425496A1, “AZETIDINYL PYRIMIDINES AND USES THEREOF” (Aerie Pharmaceuticals, Inc., priority 2021, published 2024).

Tests used:
[1] = target: TYK2 (Homo sapiens (Human), UniProt P29597); test: JAK kinase assay (KINASE-GLO luminescent), TYK2 enzyme; type: biochemical; conditions: TYK2 enzyme 10 nM, Abl peptide substrate
Protocol: (§1) All compounds were initially prepared as 10 mM stocks in anhydrous dimethylsulfoxide (DMSO). […] Test compounds were then serially diluted 1:5 in DMSO for an 11-point concentration response and further diluted in the assay buffer bringing all compound concentrations to a final range of 100 μM to 10 μM in 2.5% DMSO. […] The reaction was initiated by the addition of 10 μL of 4× stock solution ATP (2 μM). Reactions were thoroughly mixed manually, covered, and allowed to incubate at room temperature for 75 min. Protein kinase activity was quantitated using Promega's KINASE-GLO™ luminescent Kinase Assay Kit according to the manufacturer's directions. ATP concentrations remaining in Test wells following the termination of the enzymatic reaction were compared against control wells containing equivalent amounts of DMSO containing no inhibitor (CTRL). […] Percent of Control (POC) values were determined for each concentration of compound tested according to the equation: […]
(§2) IC50 values were calculated using the following 4-parameter logistic curve-fitting algorithm:
(§3) Compounds were prepared in the exact same manner as described in the ROCK Kinase Assay with the exception to the substrate and enzyme. […] All other steps and solutions remain identical to the ROCK Kinase Assay above.

[2] = target: JAK1 (Homo sapiens (Human), UniProt P23458); test: JAK kinase assay (KINASE-GLO luminescent), JAK1 enzyme; type: biochemical; conditions: JAK1 enzyme 10 nM, Abl peptide substrate
Protocol: as §1, §2, §3

TYK2, sequence (P29597 whole entry, species assumed): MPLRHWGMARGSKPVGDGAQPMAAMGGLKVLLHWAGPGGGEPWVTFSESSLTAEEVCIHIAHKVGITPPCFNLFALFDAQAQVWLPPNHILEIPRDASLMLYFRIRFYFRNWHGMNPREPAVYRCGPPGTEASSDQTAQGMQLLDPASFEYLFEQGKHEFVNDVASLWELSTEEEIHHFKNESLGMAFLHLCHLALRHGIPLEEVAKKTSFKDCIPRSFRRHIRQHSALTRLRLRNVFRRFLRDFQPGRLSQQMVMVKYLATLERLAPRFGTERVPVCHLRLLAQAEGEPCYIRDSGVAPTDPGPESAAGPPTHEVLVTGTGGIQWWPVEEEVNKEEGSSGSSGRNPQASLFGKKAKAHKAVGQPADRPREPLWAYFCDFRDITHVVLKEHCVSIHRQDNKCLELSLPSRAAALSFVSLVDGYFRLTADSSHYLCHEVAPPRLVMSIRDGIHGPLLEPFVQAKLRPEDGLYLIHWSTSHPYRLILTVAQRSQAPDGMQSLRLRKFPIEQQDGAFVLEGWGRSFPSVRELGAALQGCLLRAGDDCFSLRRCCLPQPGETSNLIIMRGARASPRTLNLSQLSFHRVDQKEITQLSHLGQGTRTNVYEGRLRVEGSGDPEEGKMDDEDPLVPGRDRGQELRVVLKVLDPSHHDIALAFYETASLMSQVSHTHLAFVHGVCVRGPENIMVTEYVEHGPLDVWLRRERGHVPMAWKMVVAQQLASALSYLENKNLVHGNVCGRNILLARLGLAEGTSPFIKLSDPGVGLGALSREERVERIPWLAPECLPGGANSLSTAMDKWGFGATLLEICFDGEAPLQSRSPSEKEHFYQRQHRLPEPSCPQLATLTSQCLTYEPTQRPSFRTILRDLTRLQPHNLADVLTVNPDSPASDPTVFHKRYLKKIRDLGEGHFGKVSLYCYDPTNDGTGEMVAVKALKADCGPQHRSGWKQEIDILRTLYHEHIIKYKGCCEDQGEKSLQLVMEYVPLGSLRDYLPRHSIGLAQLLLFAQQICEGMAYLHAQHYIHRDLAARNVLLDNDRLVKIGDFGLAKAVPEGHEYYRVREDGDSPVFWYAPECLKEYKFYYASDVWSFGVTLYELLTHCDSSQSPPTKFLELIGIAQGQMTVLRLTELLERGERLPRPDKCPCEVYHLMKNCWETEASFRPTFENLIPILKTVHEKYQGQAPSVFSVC
JAK1, sequence (P23458 whole entry, species assumed): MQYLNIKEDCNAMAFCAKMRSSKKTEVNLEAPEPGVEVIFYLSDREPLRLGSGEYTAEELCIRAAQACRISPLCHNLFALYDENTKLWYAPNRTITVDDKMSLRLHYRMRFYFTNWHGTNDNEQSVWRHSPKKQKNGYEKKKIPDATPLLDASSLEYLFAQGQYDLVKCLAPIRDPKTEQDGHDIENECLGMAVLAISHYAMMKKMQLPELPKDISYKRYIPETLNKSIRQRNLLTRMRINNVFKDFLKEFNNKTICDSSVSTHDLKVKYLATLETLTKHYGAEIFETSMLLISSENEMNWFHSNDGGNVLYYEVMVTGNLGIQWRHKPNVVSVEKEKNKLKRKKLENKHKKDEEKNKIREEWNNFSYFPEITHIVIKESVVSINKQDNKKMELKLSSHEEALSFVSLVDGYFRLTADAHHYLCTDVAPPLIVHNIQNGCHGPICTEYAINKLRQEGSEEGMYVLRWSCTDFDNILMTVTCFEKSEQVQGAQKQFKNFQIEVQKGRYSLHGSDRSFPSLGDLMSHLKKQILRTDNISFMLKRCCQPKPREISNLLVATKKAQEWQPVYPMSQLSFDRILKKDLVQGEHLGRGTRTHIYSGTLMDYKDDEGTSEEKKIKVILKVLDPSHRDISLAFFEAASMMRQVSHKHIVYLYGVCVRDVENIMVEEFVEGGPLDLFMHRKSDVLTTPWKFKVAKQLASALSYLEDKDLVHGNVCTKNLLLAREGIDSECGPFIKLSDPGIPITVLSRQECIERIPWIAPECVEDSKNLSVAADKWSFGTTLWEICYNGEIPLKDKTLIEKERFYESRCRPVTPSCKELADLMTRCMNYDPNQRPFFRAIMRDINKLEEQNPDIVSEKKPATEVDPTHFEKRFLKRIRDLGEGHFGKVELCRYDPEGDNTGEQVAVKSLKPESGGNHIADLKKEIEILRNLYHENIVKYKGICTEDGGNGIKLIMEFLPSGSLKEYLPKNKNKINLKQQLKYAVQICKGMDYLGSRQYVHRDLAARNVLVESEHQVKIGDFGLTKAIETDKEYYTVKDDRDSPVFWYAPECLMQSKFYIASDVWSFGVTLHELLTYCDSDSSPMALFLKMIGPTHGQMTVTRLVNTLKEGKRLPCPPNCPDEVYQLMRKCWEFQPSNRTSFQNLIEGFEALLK

Compound	IC50 [1]	IC50 [2]
Cc1cc(Nc2ncc(C)c(N3CC(CC#N)(N4CCN(C)CC4)C3)n2)sn1 [E5, 2-(1-(5-methyl-2-((3-methylisothiazol-5-yl)amino)pyrimidin-4-yl)-3-(4-methyl-piperazin-1-yl)azetidin-3-yl)acetonitrile]	< 10 nM	–
Cc1cc(Nc2ncc(C)c(N3CC(CC#N)(N4CCCCC4)C3)n2)sn1 [E10]	–	< 10 nM
Cc1cc(Nc2ncc(C)c(N3CC(CC#N)(N4CCC(CCF)CC4)C3)n2)sn1 [E14]	< 10 nM	< 10 nM
Cc1cc(Nc2ncc(C)c(N3CC(CC#N)(N4CCCC(C)C4)C3)n2)sn1 (stereo not shown) [E15]	< 10 nM	< 10 nM
Cc1cc(Nc2ncc(C)c(N3CC(CC#N)(N4CC(C)CC(C)C4)C3)n2)sn1 (stereo not shown) [E16]	< 5 nM	< 5 nM
Cc1cc(Nc2ncc(C)c(N3CC(CC#N)(N4CC5CC(C5)C4)C3)n2)sn1 [E19]	< 10 nM	< 10 nM
Cc1cc(Nc2ncc(C)c(N3CC(CC#N)(N4CCC(CC(F)F)CC4)C3)n2)sn1 [E20]	< 10 nM	< 10 nM
COc1cnc(Nc2cc(C)ns2)nc1N1CC(CC#N)(N2CCCCC2)C1 [E24]	< 50 nM	< 50 nM
Cc1cc(Nc2ncc(C)c(N3CC(CC#N)(N4CCC5(CC4)COC5)C3)n2)sn1 [E26]	< 10 nM	< 10 nM
Cc1cc(Nc2ncc(C)c(N3CC(CC#N)(N4CCC5(CC4)CN(C)C5)C3)n2)sn1 [E28]	< 50 nM	< 50 nM
Cc1cc(Nc2ncc(C)c(N3CC(CC#N)(N4CC5CCC(C4)N5C)C3)n2)sn1 [E30]	< 10 nM	< 50 nM
Cc1cc(Nc2ncc(C)c(N3CC(CC#N)(N4CC5CC(C4)C5(F)F)C3)n2)sn1 [E31]	< 10 nM	< 10 nM
Cc1cc(Nc2ncc(C3CC3)c(N3CC(CC#N)(N4CCCCC4)C3)n2)sn1 [E32]	< 10 nM	< 50 nM
Cc1cc(Nc2ncc(C)c(N3CC(CC#N)(N(C)C4CN(C)C4)C3)n2)sn1 [E37]	< 50 nM	< 50 nM
Cc1cc(Nc2ncc(C)c(N3CC(CC#N)(N4CCCC5(COC5)C4)C3)n2)sn1 [E41]	< 10 nM	< 10 nM
Cc1cc(Nc2nccc(N3CC(CC#N)(N4CCCCC4)C3)n2)sn1 [E45]	< 20 nM	< 200 nM
Cc1cc(Nc2ncc(C)c(N3CC(CC#N)(N4CCC(CS(C)(=O)=O)CC4)C3)n2)sn1 [E47]	< 10 nM	< 10 nM
Cc1cc(Nc2ncc(C)c(N3CC(CC#N)(N4C5CCCC4C5)C3)n2)sn1 [E49]	< 20 nM	< 30 nM
Cc1cc(Nc2ncc(C)c(N3CC(CC#N)(N4C5CC4CN(C)C5)C3)n2)sn1 [E50]	< 400 nM	< 250 nM
Cc1cc(Nc2ncc(C)c(N3CC(CC#N)(N4CCN(CC(C)C)CC4)C3)n2)sn1 [E51]	< 20 nM	< 15 nM
Cc1cc(Nc2ncc(C)c(N3CC(CC#N)(N4CCN(CC(C)(C)F)CC4)C3)n2)sn1 [E52D]	< 20 nM	< 10 nM
Cc1cc(Nc2ncc(C)c(N3CC(CC#N)(N4CC5CC(C4)N5C)C3)n2)sn1 [E52F]	< 50 nM	< 100 nM
Cc1cc(Nc2ncc(C)c(N3CC(CC#N)(N4CCCN(C)CC4)C3)n2)sn1 [E52G]	< 50 nM	< 100 nM
CCN1CCN(C2(CC#N)CN(c3nc(Nc4cc(C)ns4)ncc3C)C2)CC1 [E52]	< 10 nM	< 10 nM

Now from value to compound:

IC50 [1]	IC50 [2]	Compound
< 10 nM	–	Cc1cc(Nc2ncc(C)c(N3CC(CC#N)C3)n2)sn1 [E6]
< 10 nM	< 10 nM	Cc1cc(Nc2ncc(C)c(N3CC(CC#N)(N4CCOCC4)C3)n2)sn1 [E9]
< 10 nM	< 10 nM	Cc1cc(Nc2ncc(C)c(N3CC(CC#N)(N4CC(C5CC5)C4)C3)n2)sn1 [E11]
< 10 nM	< 10 nM	Cc1cc(Nc2ncc(C)c(N3CC(CC#N)(N4CCC4)C3)n2)sn1 [E12]
< 10 nM	< 10 nM	Cc1cc(Nc2ncc(C)c(N3CC(CC#N)(N(C)C4CC4)C3)n2)sn1 [E13]
< 10 nM	< 10 nM	Cc1cc(Nc2ncc(C)c(N3CC(CC#N)(N4CCC(F)CC4)C3)n2)sn1 [E17]
< 5 nM	< 5 nM	Cc1cnc(Nc2cc(C3CC3)ns2)nc1N1CC(CC#N)(N2CCN(C)CC2)C1 [E18]
< 10 nM	< 10 nM	Cc1cc(Nc2ncc(C)c(N3CC(CC#N)(N4CCCC5(CC5)C4)C3)n2)sn1 [E21]
< 10 nM	< 10 nM	Cc1cc(Nc2ncc(C)c(N3CC(CC#N)(N4CCC5(CC4)CC5(F)F)C3)n2)sn1 [E22]
< 10 nM	< 10 nM	Cc1cc(Nc2ncc(C)c(N3CC(CC#N)(N4CC(C)CC5(CC5)C4)C3)n2)sn1 (stereo not shown) [E23]
< 10 nM	< 10 nM	Cc1cc(Nc2ncc(Cl)c(N3CC(CC#N)(N4CCCCC4)C3)n2)sn1 [E25]
< 10 nM	< 10 nM	Cc1cc(Nc2ncc(C)c(N3CC(CC#N)(N4CCCC5(C4)CC5(F)F)C3)n2)sn1 (stereo not shown) [E27]
< 10 nM	< 10 nM	Cc1cc(Nc2ncc(C)c(N3CC(CC#N)(N4CC5C(C4)C5(F)F)C3)n2)sn1 (stereo not shown) [E29]
< 10 nM	< 10 nM	Cc1cc(Nc2ncc(C)c(N3CC(CC#N)(N4CCCCCC4)C3)n2)sn1 [E33]
< 10 nM	< 50 nM	Cc1cc(Nc2ncc(C)c(N3CC(CC#N)(N4C[C@@H](C)N(C)[C@@H](C)C4)C3)n2)sn1 [E34]
< 10 nM	< 50 nM	Cc1cc(Nc2ncc(C)c(N3CC(CC#N)(N4C[C@@H](C)N(C)[C@H](C)C4)C3)n2)sn1 [E35]
< 10 nM	< 10 nM	Cc1cc(Nc2ncc(C)c(N3CC(CC#N)(N4CCN(C)C(C)C4)C3)n2)sn1 (stereo not shown) [E36]
< 10 nM	< 10 nM	Cc1cc(Nc2ncc(C)c(N3CC(CC#N)(N4CCN(C)C5(CC5)C4)C3)n2)sn1 [E38]
< 10 nM	< 10 nM	Cc1cc(Nc2ncc(C)c(N3CC(CC#N)(N4CCC5(CC4)CC5)C3)n2)sn1 [E39]
< 10 nM	< 10 nM	Cc1cc(Nc2ncc(C)c(N3CC(CC#N)(N4CCC(C5CC5(F)F)CC4)C3)n2)sn1 (stereo not shown) [E40]
< 1000 nM	< 1000 nM	Cc1cc(Nc2ncc(C)c(N3CC(CC#N)(N4CC5(CN(C)C5)C4)C3)n2)sn1 [E42]
< 100 nM	< 150 nM	Cc1cc(Nc2ncc(C)c(N3CC(CC#N)(N4CC(N(C)C)C4)C3)n2)sn1 [E43]
< 20 nM	< 50 nM	Cc1cc(Nc2ncc(C)c(N3CC(CC#N)(N4C[C@H](C)N(C)[C@@H](C)C4)C3)n2)sn1 [E44]
< 10 nM	< 20 nM	Cc1cc(Nc2ncc(C)c(N3CC(CC#N)(N4CCN(C)C5(COC5)C4)C3)n2)sn1 [E46]
< 10 nM	< 10 nM	Cc1cc(Nc2ncc(C)c(N3CC(CC#N)(N4CCN(CC5CC5)CC4)C3)n2)sn1 [E48]
< 10 nM	< 20 nM	Cc1cc(Nc2ncc(C)c(N3CC(CC#N)(N4CCN(C)[C@@H](C)C4)C3)n2)sn1 [E52A]
< 10 nM	< 10 nM	Cc1cc(Nc2ncc(C)c(N3CC(CC#N)(N4CCN5C[C@@H](F)C[C@H]5C4)C3)n2)sn1 [E52B]
< 10 nM	< 10 nM	Cc1cc(Nc2ncc(C)c(N3CC(CC#N)(N4CCC5C(CC4)C5(F)F)C3)n2)sn1 (stereo not shown) [E52E]
< 100 nM	< 100 nM	Cc1cc(Nc2ncc(C)c(N3CC(CC#N)(NC4CN(C)C4)C3)n2)sn1 [E52H]
